Experimental data from US20080039444A1, “COMPOUNDS” (GLAXO GROUP LIMITED, priority 2006, published 2008).

Assays:
human H1 receptor [1] = molecular target: T1, human H1 receptor (Homo sapiens, UniProt P35367); assay: Histamine H1 functional antagonist assay (FLIPR): determination of antagonist pA2; assay type: cell-based
T1 construct: expressed in transfected cells
Description: (§1) The human H1 receptor is cloned using known procedures described in the literature [Biochem. Biophys. Res. Commun., 201(2):894 (1994)]. Chinese hamster ovary (CHO) cells stably expressing the human H1 receptor are generated according to known procedures described in the literature [Br. J. Pharmacol., 117(6):1071 (1996)].
Histamine H1 functional antagonist assay: Determination of antagonist pA2 and duration
The histamine H1 receptor expressing CHO cells are seeded into non-coated black-walled clear bottom 96-well tissue culture plates as described above. Following overnight culture, growth medium is removed from each well, washed with 200 μl phosphate buffered saline (PBS) and is replaced with 50 μl loading dye (250 μM Brilliant Black, 1 μM Fluo-4 diluted in Tyrodes buffer+probenecid (145 mM NaCl, 2.5 mM KCl, 10 mM HEPES, 10 mM D-glucose, 1.2 mM MgCl2, 1.5 mM CaCl2, 2.5 mM probenecid, pH adjusted to 7.40 with NaOH 1.0 M)). Cells are incubated for 45 min at 37° C. The loading buffer is removed and the cells are washed as above, and 90 μl of Tyrodes buffer+probenecid is added to each well. 10 μl of test compound, diluted to the required concentration in Tyrodes buffer+probenecid (or 10 μl Tyrodes buffer+probenecid as a control) is added to each well and the plate is incubated for 30 min at 37° C., 5% CO2. The plates are then placed into a FLIPR™ (Molecular Devices, UK) to monitor cell fluorescence (λex=488 nm, λEM=540 nm) in the manner described in Sullivan et al., (In: Lambert DG (ed.), Calcium Signaling Protocols, New Jersey: Humana Press, 1999, 125-136) before and after the addition of 50 μl histamine over a concentration range of 1 mM-0.1 nM. The resultant concentration response curves are analysed by non-linear regression using a standard four parameter logistic equation to determine the histamine EC50, the concentration of histamine required to produce a response of 50% of the maximum response to histamine. The antagonist pA2 is calculated using the following standard equation: pA2=log(DR-1)- log[B] where DR=dose ratio, defined as EC50antagonist-treated/EC50control and [B]=concentration of antagonist.

human H1 receptor [2] = molecular target: T1, human H1 receptor; assay: Histamine H1 functional antagonist assay (FLIPR): determination of functional pKi values; assay type: cell-based; details: CHO cells expressing human H1, histamine at EC80; read-out: average pKi (pKb) at H1 (converted)
Excerpt: H1 receptor cell line generation and FLIPR assay protocol
1. Generation of histamine H1 cell line
as §1
Histamine H1 functional antagonist assay: Determination of functional pKi values […]
10 μl of test compound, diluted to the required concentration in Tyrodes buffer+probenecid (or 10 μl Tyrodes buffer+probenecid as a control) is added to each well and the plate is incubated for 30 min at 37° C., 5% CO2. The plates are then placed into a FLIPR™ (Molecular Devices, UK) to monitor cell fluorescence (λex=488 nm, αEM=540 nm) in the manner described in Sullivan et al., (In: Lambert DG (ed.), Calcium Signaling Protocols, New Jersey: Humana Press, 1999, 125-136) before and after the addition of 10 μl histamine at a concentration that results in the final assay concentration of histamine being EC80.
Functional antagonism is indicated by a suppression of histamine induced increase in fluorescence, as measured by the FLIPR™ system (Molecular Devices). By means of concentration effect curves, functional affinities are determined using standard pharmacological mathematical analysis.

T1 sequence (P35367 whole entry): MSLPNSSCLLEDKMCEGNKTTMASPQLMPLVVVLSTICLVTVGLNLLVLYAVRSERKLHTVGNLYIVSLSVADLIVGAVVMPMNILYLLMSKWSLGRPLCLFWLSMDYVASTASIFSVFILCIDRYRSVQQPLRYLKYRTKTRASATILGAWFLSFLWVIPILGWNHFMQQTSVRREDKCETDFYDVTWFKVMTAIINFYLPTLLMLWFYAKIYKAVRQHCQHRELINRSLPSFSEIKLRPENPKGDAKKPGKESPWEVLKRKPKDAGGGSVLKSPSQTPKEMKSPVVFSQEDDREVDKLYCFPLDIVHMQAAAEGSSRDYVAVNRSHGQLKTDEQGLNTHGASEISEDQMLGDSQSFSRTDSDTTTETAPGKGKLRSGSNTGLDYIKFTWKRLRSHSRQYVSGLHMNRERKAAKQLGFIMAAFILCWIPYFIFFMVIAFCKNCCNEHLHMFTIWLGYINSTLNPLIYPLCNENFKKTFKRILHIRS

Which results are given for `O=c1c2ccccc2c(Cc2ccc(Cl)cc2)nn1C[C@H]1CCCN1CCCCc1ccc(OCCCN2CCCCCC2)cc1` [Example 24, 4-[(4-Chlorophenyl)methyl]-2-({(2R)-1-[4-(4-{[3-(hexahydro-1H-azepin-1-yl)propyl]oxy}phenyl)butyl]-2-pyrrolidinyl}methyl)-1(2H)-phthalazinone free base]?
Kb (human H1 receptor [1]): ~1.26 nM; Ki (human H1 receptor [2]): ~15.8 nM
